Data reported in patent US20240317806A1, “TOPICAL PEPTIDE FORMULATION FOR THE TREATMENT OF SEXUAL DYSFUNCTION” (priority 2023, published 2024).

Tests used:
[1] = Mean arterial pressure and dermal irritation in the erectile function study; type: in vivo, Sprague Dawley rats; conditions: for MAP: mean ± standard deviation
Protocol: (§1) Erectile function was evaluated by means of the intracavernosal pressure/mean arterial pressure (ICP/MAP) ratio at 4 different times (0, 15, 30 and 45 minutes) after application of ganglionic electrical functional stimulus (EFS) of 8 Hz.
(§2) The formulated peptide (both with TFA counter-ion and Acetate) was applied topically to the penis of the rats 15 minutes before ICP/MAP measurements, at a dose of 1000 μg diluted in 200 μL of the formulation (dose of 4 mg/Kg), reaching a concentration of 5 mg/mL or 0.5% w/v of the peptide in the formulation. Sildenafil was applied SC, at a dose of 25 mg/Kg (1 mL/Kg) 30 minutes before ICP/MAP measurements.

[2] = test system: erectile function of healthy rats; assay: Erectile function (ICP/MAP ratio) after ganglionic electrical stimulation; type: in vivo, Sprague Dawley rats; conditions: peptide topical 4 mg/Kg 15 min before; sildenafil SC 25 mg/Kg 30 min before; EFS 8 Hz; 0-45 min
Source text: For this study, PnPP-19 was produced with TFA or Acetate as a counter-ion. Usually, peptides with TFA as a counter-ion are used in the preclinical stage of development; nevertheless, for safety purposes, the counter-ion is changed to acetate for clinical stage of development. […] Also, to compare if the counter-ion exchange would impact the biological effect of PnPP-19, two peptide batches was produced: one with the counter-ion TFA and another with the counter-ion Acetate. Sildenafil was used as a positive control (subcutaneously administration).
as §1, §2

[3] = Phase 1 clinical study: pharmacokinetics; type: in vivo, human; conditions: 12 subjects
Protocol: Related to the pharmacokinetic analysis, the following outcomes were considered: detection of BZ371A, and its fragments, in the blood at the following collected times: pre-dose, 15, 30, 60, 180 and 360 minutes; if detected, determine the pharmacokinetic parameters: maximum concentration, half-life, area under the curve, clearance, volume of distribution.

[4] = Release test in Franz vertical diffusion cells; type: in vitro ADME; conditions: peptide applied in saline or in the buffer of the formulations; after 6 hours (peak) and until 24 hours
Protocol: For the release test, a cellulose acetate membrane was used to generate the physical barrier between a donor compartment, where the formulations are added, and the recipient compartment, where the peptide is measured.
(§3) The assays were conducted in Franz vertical diffusion cells with 1.767 cm^2 of area for diffusion of the peptide, containing a donor compartment with a capacity of 1 mL and a recipient compartment with a capacity of 7 mL. To the recipient compartment, 7 mL of the biorelevant solution were added, in which the media selected by preliminary studies was 20 mM sodium acetate buffer pH 5.0+0.5% Tween® 20. […] The cells were placed in a thermostatic bath, with a temperature of 37° C.±0.5° C., with the goal to mimic the surface temperature. The bioreceptor medium was subjected to 350 rpm agitation. In times 0.5-, 1-, 2-, 4-, 6- and 24 h, collections of 1 mL were made from the recipient compartment, in order to measure the peptide content.

[5] = Second permeation test in Franz cells; type: in vitro ADME; conditions: Strat-M membrane; applied in the FAPP20 buffer (20 mM sodium acetate buffer solution)
Protocol: In the first permeation assay, the physical barrier was the whole pig skin, which mimics the human stratum corneum. In the second permeation test, the physical barrier was the Strat-M membrane, which mimics the human stratum corneum.
as §3
In the first permeation assay, PnPP-19 was formulated with 6 μM of alpha cyclodextrin or with transcutol 15%.
Based on the release results described above, the 20 mM sodium acetate buffer pH 5.0+0.5% Tween® 20 was confirmed as the best receiving medium to be used in the permeation assay with Strat M membrane.

[6] = Biodistribution and pharmacokinetics after topical administration of radiolabeled PnPP-19 in FAPP20; type: in vivo, rats
Protocol: In order to evaluate the in vivo permeation of the peptide (and/or its fragments) in the formulation FAPP20, a biodistribution study was carried out in healthy rats. The peptide was radiolabeled with iodine [^131I] NaI using chloramine T method.
The study was conducted considering the dose of 5 mg/ml; and the maximum area of genital application. The final application volume was 100 μL that results in a dose of 2 mg/kg. The evaluation of biodistribution was carried out after the administration of a single dose of the peptide, applied topically to the skin of the penis after trichotomy of the rat's genital area.
Regarding biodistribution data, radiolabeled peptide concentrations were higher in skin, foreskin and SMC tissue at all times studied. In the first analyzed time, of 15 minutes, it was already possible to detect the peptide in the target tissues: the SMC layer, and the first layer of the skin, where the penile nerves are found (herein called of foreskin), showing that the peptide is rapidly absorbed into the skin. Within 30 minutes, its detection falls at the initial application site (skin), and increases in the foreskin, showing that it continues to be absorbed, and remains stable in the SMC layer. Within 60 minutes it is practically undetectable in tissues (FIG. 4).
For the pharmacokinetic (PK) study, the blood of the animals was collected at 0 h (predose), 15, 30 and 60 minutes, 3, 8 and 24 hours. All samples collected were quantified in a Wizard 3 gamma counter (PerkinElmer) for later calculation of the percentage of dose applied per gram of organ. […] While 42% of the applied dose is in the first layer of the skin, the peptide is detected in up to 18% in the SMC layer. Both peptide and its fragments were not found systemically (<1%) in the organs of choice (kidneys, testicles and epididymis) or in the blood, at any of the evaluated time-points, showing that the formulation remains in the application site, with no systemic absorption.

[7] = Physicochemical properties of PnPP-19 peptide (pI, pKa)
Source text: Aspects of the disclosure relate to pharmaceutical compositions comprising a PnPP-19 peptide (e.g., a peptide comprising or consisting of the amino acid sequence set forth in SEQ ID NO: 1). PnPP-19 is a synthetic, non-toxic peptide composed of 19 amino acid residues originating from the PnTx2-6 toxin, which was isolated from the venom of the Brazilian armadeira spider (Phoneutria nigriventer). In some embodiments, the isolated peptide (e.g., PnPP-19) is presented as a freeze-dried white powder (e.g., a solid physical form). In some embodiments, PnPP-19 is an amphipathic peptide with about 26% cationic amino acid residues. In some embodiments, PnPP-19 is positively charged at pH 7.

Compound | MAP ([1]; 0 min) | MAP ([1]; 15 min) | MAP ([1]; 30 min) | MAP ([1]; 45 min) | effect on MAP / systemic hypotension compared to vehicle ([1]; rats) | erectile function (ICP/MAP ratio) compared to negative control (vehicle) [2] | plasma concentrations of BZ371A fragments ([3]; no detectable concentrations, limit of detection=40 ng/ml) | plasma concentrations of BZ371A ([3]; no quantifiable concentrations, LIQ=50 ng/ml, pre-dose to 360 minutes) | quantification of PnPP-19 in the receptor media (controls) [4] | detection of PnPP-19 in the receptor compartment (control) [5] | applied dose/gram found in CC tissue (SMC layer) ([6]; 15 minutes after topical application to rat penis, normalized) | applied dose/gram found in the skin ([6]; 15 minutes after topical application to rat penis, normalized to total in all tissues) | peptide and fragments found systemically (kidneys, testicles, epididymis, blood) ([6]; any of the evaluated time-points up to 24 hours) | pKa [7]
CCCc1nn(C)c2c(=O)[nH]c(-c3cc(S(=O)(=O)N4CCN(C)CC4)ccc3OCC)nc12 [Sildenafil, sildenafil] | 87 ± 10 (**) mmHg | 93 ± 8 (*) mmHg | 93 ± 8 (***) mmHg | 94 ± 7 (***) mmHg | significant decrease in MAP | not superior to the negative control group | – | – | – | – | – | – | – | –
Ac-GERRQYFWIAWYKLANSKK-NH2 [PnPP-19] | – | – | – | – | – | – | < 40 ng/mL | < 50 ng/mL | can be quantified in the receptor media | detected in the receptor compartment since initial time (0.5 h) | up to 18% | 42% | < 1% | 12.4
